According to patent US11629171B2, “Beta-hairpin peptidomimetics” (POLYPHOR AG, priority 2017, dated 2023):
Values after ≈ are worked out from the molar mass of the structure shown. Where a SMILES comes first, the peptide text is derived from it. Bridges are numbered along the chain shown (N, C = ends). Roman numbers before positions name the chains, in order. [ ]: non-standard residue; d: D form. Pen = CC(C)(S)[C@H](N)C(=O)O; Hiv = CC(C)[C@H](O)C(=O)O; dDab = NCC[C@@H](N)C(=O)O; Dab = NCC[C@H](N)C(=O)O; Dap = NC[C@H](N)C(=O)O

How the values were obtained:
Format in all cases: cell-based
[1] = test system: Acinetobacter baumannii 872842; conditions: 872842
Summary of the method: (§1)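 MIC in μg/mL, read as no visible growth after 18-20 hours at 35° C. Peptides were serially diluted two-fold in MH-II broth plus P-80 (0.002% final, v/v) and inoculated at about 10^6 CFU/mL following the CLSI broth microdilution standard.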

[2] = test system: Acinetobacter baumannii DSM 30008; conditions: DSM 30008
Summary of the method: as §1

[3] = test system: Enterobacter cloacae 848840; conditions: 848840
Summary of the method: as §1

Escherichia coli 926415 = conditions: 926415
Summary of the method: as §1

[4] = test system: Escherichia coli ATCC 25922; conditions: ATCC 25922
Summary of the method: as §1

[5] = test system: Klebsiella pneumoniae 968733; conditions: 968733
Summary of the method: as §1

[6] = test system: Klebsiella pneumoniae SSI #3010; conditions: SSI #3010
Summary of the method: as §1

[7] = test system: Pseudomonas aeruginosa ATCC 27853; conditions: ATCC 27853
Summary of the method: as §1

[8] = test system: human red blood cells (hRBC); experiment: Hemolysis; conditions: red cells of human, 1 h, 200
Summary of the method: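 Hemoglobin release from PBS-washed hRBC at 20% (v/v), incubated 1 h at 37° C with peptides at 200 μg/mL, is measured at 540 nm. Values are blank corrected and given as a fraction of Triton X-100 lysis × 100%.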

Row | SMILES | MIC [1] | MIC [2] | MIC [3] | MIC (Escherichia coli 926415) | MIC [4] | MIC [5] | MIC [6] | MIC [7] | Hemolysis at 200 μg/mL [8] | Acinetobacter baumannii DSM 30008 MIC [2] | Escherichia coli ATCC 25922 MIC [4] | Klebsiella pneumoniae SSI #3010 MIC [6] | Pseudomonas aeruginosa ATCC 27853 MIC [7]
1 | CC(=O)N[C@H](C(=O)N[C@H]1CSSC[C@@H](C(=O)N[C@@H](CO)C(N)=O)NC(=O)[C@H](C(C)C)NC(=O)[C@H](CO)NC(=O)[C@H](Cc2c[nH]c3ccccc23)NC(=O)[C@H](CCN)NC(=O)[C@@H](CCN)NC(=O)[C@H](CCC(=O)N[C@@H](CCN)C(=O)N[C@H](C(=O)N[C@@H](CCN)C(=O)N[C@H]2CCNC(=O)[C@H]([C@@H](C)O)NC(=O)[C@H](CCN)NC(=O)[C@H](CCN)NC(=O)[C@H](CC(C)C)NC(=O)[C@@H](CC(C)C)NC(=O)[C@H](CCN)NC2=O)[C@@H](C)O)NC(=O)[C@H](CO)NC(=O)[C@H](Cc2ccc(O)cc2)NC1=O)C(C)C [Ex. 272] (I: Ac-VCYSE[dDab][Dab]WSVCS-NH2 / II: [Dab]T[Dab][Dab][Dab][dL]L[Dab][Dab]T; disulfide I:2-I:11; amide I:5-II:N; lactam II:4-II:C) | 0.0625 µg/mL (≈ 0.0259 µM) | 0.0625 µg/mL (≈ 0.0259 µM) | 0.25 µg/mL (≈ 0.104 µM) | 0.125 µg/mL (≈ 0.0518 µM) | 0.0625 µg/mL (≈ 0.0259 µM) | 0.125 µg/mL (≈ 0.0518 µM) | 0.0625 µg/mL (≈ 0.0259 µM) | 0.125 µg/mL (≈ 0.0518 µM) | <1% |  |  |  | 
2 | CC(=O)N[C@H](C(=O)N[C@H]1CC(=O)NCC[C@@H](C(=O)N[C@@H](CO)C(N)=O)NC(=O)[C@H](C(C)C)NC(=O)[C@H](CO)NC(=O)[C@H](Cc2c[nH]c3ccccc23)NC(=O)CNC(=O)[C@@H](CCN)NC(=O)[C@H](CCC(=O)N[C@@H](CCN)C(=O)N[C@H](C(=O)N[C@@H](CN)C(=O)N[C@H]2CCNC(=O)[C@H]([C@@H](C)O)NC(=O)[C@H](CCN)NC(=O)[C@H](CCN)NC(=O)[C@H](CC(C)C)NC(=O)[C@@H](CC(C)C)NC(=O)[C@H](CCN)NC2=O)[C@@H](C)O)NC(=O)[C@H](CO)NC(=O)[C@H](Cc2ccc(O)cc2)NC1=O)C(C)C [Ex. 292] (I: Ac-VDYSE[dDab]GWSV[Dab]S-NH2 / II: [Dab]T[Dap][Dab][Dab][dL]L[Dab][Dab]T; lactam I:2-I:11, II:4-II:C; amide I:5-II:N) | 0.5 µg/mL (≈ 0.213 µM) | 0.125 µg/mL (≈ 0.0532 µM) | 1 µg/mL (≈ 0.426 µM) | 1 µg/mL (≈ 0.426 µM) | 0.0625 µg/mL (≈ 0.0266 µM) | 4 µg/mL (≈ 1.7 µM) | 0.25 µg/mL (≈ 0.106 µM) | 0.125 µg/mL (≈ 0.0532 µM) | <1% |  |  |  | 
3 | CC(C)C[C@@H]1NC(=O)[C@@H](CC(C)C)NC(=O)[C@H](CCN)NC(=O)[C@@H](NC(=O)[C@H](CN)NC(=O)[C@@H](NC(=O)[C@H](CCN)NC(=O)CC[C@@H]2NC(=O)[C@H](CCN)NC(=O)[C@H](Cc3ccc(O)cc3)NC(=O)[C@@H](NC(=O)[C@@H](O)C(C)C)CSSC(C)(C)[C@@H](C(=O)N[C@@H](CO)C(N)=O)NC(=O)[C@H](C(C)C)NC(=O)[C@H](CO)NC(=O)[C@H](Cc3c[nH]c4ccccc34)NC(=O)[C@H](CO)NC(=O)[C@@H](CCN)NC2=O)[C@@H](C)O)CCNC(=O)[C@H]([C@@H](C)O)NC(=O)[C@H](CCN)NC(=O)[C@H](CCN)NC1=O [Ex. 301] (I: H-[Hiv]CY[Dab]E[dDab]SWSV[Pen]S-NH2 / II: [Dab]T[Dap][Dab][Dab][dL]L[Dab][Dab]T; disulfide I:2-I:11; amide I:5-II:N; lactam II:4-II:C) | 0.25 µg/mL (≈ 0.105 µM) |  | 0.125 µg/mL (≈ 0.0524 µM) | 0.125 µg/mL (≈ 0.0524 µM) |  | 0.5 µg/mL (≈ 0.21 µM) |  |  | 2% | 0.0625 µg/mL | 0.0625 µg/mL | 0.125 µg/mL | 0.125 µg/mL
4 | CC(=O)N[C@H](C(=O)N[C@H]1CCN(C)C(=O)C[C@@H](C(=O)N[C@@H](CO)C(N)=O)NC(=O)[C@H](C(C)C)NC(=O)[C@H](CO)NC(=O)[C@H](Cc2c[nH]c3ccccc23)NC(=O)[C@H](CO)NC(=O)[C@@H](CCN)NC(=O)[C@H](CCC(=O)N[C@@H](CCN)C(=O)N[C@H](C(=O)N[C@@H](CN)C(=O)N[C@H]2CCNC(=O)[C@H]([C@@H](C)O)NC(=O)[C@H](CCN)NC(=O)[C@H](CCN)NC(=O)[C@H](CC(C)C)NC(=O)[C@@H](CC(C)C)NC(=O)[C@H](CCN)NC2=O)[C@@H](C)O)NC(=O)[C@H](CCN)NC(=O)[C@H](Cc2ccc(O)cc2)NC1=O)C(C)C [Ex. 302] | 0.5 µg/mL (≈ 0.208 µM) |  | 0.5 µg/mL (≈ 0.208 µM) | 2 µg/mL (≈ 0.831 µM) |  | 2 µg/mL (≈ 0.831 µM) |  |  | 3% | 0.125 µg/mL | 0.0625 µg/mL | 0.125 µg/mL | 0.125 µg/mL
